Assay results taken from patent US20190298721A1, “STABLE PRO-VITAMIN DERIVATIVE COMPOUNDS, PHARMACEUTICAL AND DIETARY COMPOSITIONS, AND METHODS OF THEIR USE” (CORNELL UNIVERSITY, priority 2016, published 2019).

Columns and labels:
[1] = Chemical stability of folates incubated in Defined αMEM at 65° C., read out by L. casei assay; assay type: physicochemical; details: for Chemical stability (support of growth in the microbiological assay): after 24 hours incubation at 65° C., pH 7.2 (FIG. 8); for Chemical stability relative to 5-methyltetrahydrofolate: 65° C., pH 7.2, Defined αMEM (FIG. 8)
Method: Folic acid and various reduced folates were incubated in Defined αMEM (described above) in sterile Eppendorf tubes at 65° C. and sampled at 0, 0.5, 1, 2, 4, 8, and 24 hours. The sampled aliquots were immediately mixed with L. casei extraction buffer containing sodium ascorbate to protect folates from oxidative degradation and frozen at −80° C. The L. casei assay was performed as previously described (Suh et al., “Purification and Properties of a Folate-Catabolizing Enzyme,” J Biol. Chem. 275(45):35646-35655 (2000), which is hereby incorporated by reference in its entirety).

[2] = Mice fed AIN-93G diet containing the folate source (growth, adverse symptoms); assay type: in vivo, mouse; details: for Mouse growth: AIN-93G diet with the compound as folate source, over at least an 8-week period
[3] = Stability in AIN-93G mouse food pellets; assay type: physicochemical; details: for at least 10 weeks; pellets stored at room temperature or −20° C. (FIGS. 9A-B)
Method: Folic acid and (6S)-5-formyl, 10-formyl-tetrahydrofolate were shipped to Dyets, Bethlehem, Pa. as folate sources for the formulation of AIN-93G, a defined growth diet formulated for rodents by the American Institute of Nutrition. The stability of folic acid and (6S)-5-formyl, 10-formyl-tetrahydrofolate in food pellets was determined over a 10 week period.

[4] = test system: immortalized mouse fibroblasts (CHIP) cells; assay: Cell proliferation of immortalized mouse fibroblasts (CHIP) in Defined αMEM supplemented with folate forms (bright field image analysis); assay type: cell-based; details: range of concentrations, approximately three doublings, compared with Leucovorin and folic acid (FIG. 6B)
Method: (§1) HeLa cells and immortalized mouse fibroblasts (CHIP) cells were plated in 96-well plates, 1000 cells per well. Total cell number was monitored over time using bright field image analysis on a Celigo cytometer (Nexcelom, Inc.) according to manufacturers' protocols. Data was represented as average±standard deviation for 10 biological replicates per condition. Cells were cultured in Defined αMEM culture media (lacking folate, serine, glycine, methionine, nucleosides/nucleotides, and pyridoxine) which was supplemented with 200 μM methionine, 0.5 g/L pyridoxine, and varying concentrations of folic acid, (6S)-Leucovorin or novel folate derivative. Before plating for proliferation assays, HeLa cells and CHIP cells were cultured for three doublings in Defined αMEM lacking folate to deplete intracellular folates.

HeLa cells [5] = assay: Cell proliferation of HeLa cells in Defined αMEM supplemented with folate forms (bright field image analysis); assay type: cell-based; details: range of concentrations, approximately three doublings, compared with Leucovorin and folic acid (FIGS. 6A, 6C)
Method: as §1

HeLa cells [6] = assay: Total intracellular folate measurement in HeLa cells (L. casei microbiological assay); assay type: cell-based
Method: HeLa cells were cultured in Defined αMEM (as described above) lacking folate for two doublings to deplete cellular folates, then plated into 6-well plates (1000 cells/well) and cultured for two cell doublings with Defined αMEM culture media (described above) supplemented with 200 μM methionine, 0.5 g/L pyridoxine, and either 2 nM or 20 nM (6S)-Leucovorin or novel folate derivative. Total intracellular folates were quantified using a microbiological (Lactobacillus casei, or L. casei) assay as previously described (Suh et al., “Purification and Properties of a Folate-Catabolizing Enzyme,” J. Biol. Chem. 275(45):35646-35655 (2000), which is hereby incorporated by reference in its entirety). Data is represented as mean±SEM of three biological replicates per condition.

[7] = Acid stability (conversion to 5,10-methenyltetrahydrofolate); assay type: physicochemical; details: conversion to 5,10-methenyltetrahydrofolate in acid; no method described

Chemical stability (support of growth in the microbiological assay) [1] | Stability as a component of AIN-93G rodent food [3] | SMILES | Mouse growth [2] | Chemical stability relative to 5-methyltetrahydrofolate [1] | Chemical stability relative to 5-methyltetrahydrofolate ([1]; 10-formyltetrahydrofolate) | further results
continued to support growth |  | Nc1nc2c(c(=O)[nH]1)N(C=O)[C@@H](CNc1ccc(C(=O)N[C@@H](CCC(=O)O)C(=O)O)cc1)CN2 [(6S)-Leucovorin, (6S)-5-formyltetrahydrofolate, reference compound] |  |  |  | Stability in acid [7]: unstable in acid
continued to support growth | completely stable | Nc1nc2ncc(CNc3ccc(C(=O)N[C@@H](CCC(=O)O)C(=O)O)cc3)nc2c(=O)[nH]1 [folic acid, reference compound] | promote mouse growth |  |  | 

Second part, the compound before the results:

SMILES | Chemical stability (support of growth in the microbiological assay) [1] | Stability as a component of AIN-93G rodent food [3] | Mouse growth [2] | Chemical stability relative to 5-methyltetrahydrofolate [1] | Chemical stability relative to 5-methyltetrahydrofolate ([1]; 10-formyltetrahydrofolate) | further results
CN1c2c(nc(N)[nH]c2=O)NC[C@@H]1CNc1ccc(C(=O)N[C@@H](CCC(=O)O)C(=O)O)cc1 [5-methyl-tetrahydrofolate, (6S) 5-methyltetrahydrofolate, reference compound] | completely destroyed |  |  |  |  | 
Nc1nc2c(c(=O)[nH]1)N(C=O)[C@H](CN(C=O)c1ccc(C(=O)N[C@@H](CCC(=O)O)C(=O)O)cc1)CN2 [(6S)-5-formyl, 10-formyltetrahydrofolate] |  | completely stable | promote mouse growth | chemically more stable than 5-methyltetrahydrofolate | increased chemical stability relative to (6S) 5-methyltetrahydrofolate | Adverse symptoms ([2]; mice fed AIN-93G diet containing the compound for 8 weeks): without any adverse symptoms; Proliferation / support of cell growth ([4]; 10-formylTHF): support cell growth in a similar dose-response as (6S)-Leucovorin and are superior to folic acid; Proliferation / support of cell growth (HeLa cells [5]; 10-formylTHF): support cell growth in a similar dose-response as (6S)-Leucovorin and are superior to folic acid
CN1c2c(nc(N)[nH]c2=O)NC[C@H]1CN(C=O)c1ccc(C(=O)N[C@@H](CCC(=O)O)C(=O)O)cc1 [(6S)-5-methyl, 10-formyltetrahydrofolate] |  |  |  | chemically more stable than 5-methyltetrahydrofolate | increased chemical stability relative to (6S) 5-methyltetrahydrofolate | Total cellular folate (HeLa cells [6]; HeLa cells cultured with 20 nM compound, compared with 2 nM (6S)-Leucovorin): equivalent to total cellular folate in HeLa cells cultured in 2 nM (6S)-Leucovorin; Total intracellular folate levels (HeLa cells [6]; HeLa cells, 2 nM or 20 nM folate form, (6S)-Leucovorin vs (6S)-5-methyl, 10-formyltetrahydrofolate (FIG. 7)): higher with (6S)-Leucovorin than with (6S)-5-methyl, 10-formyltetrahydrofolate; Proliferation / support of cell growth ([4]; 10-formyl-THF): support cell growth in a similar dose-response as (6S)-Leucovorin and are superior to folic acid; Proliferation / support of cell growth (HeLa cells [5]; 10-formyl-THF): support cell growth in a similar dose-response as (6S)-Leucovorin and are superior to folic acid
